Assay results reported in patent publication US20110059886A1, “HCV NS3-NS4A Protease Inhibition” (priority 2004, published 2011).
Where two headings read alike, the source gives them in different places. Non-standard residues stand in square brackets, D forms with d. Residues, ends and D or L forms follow the SMILES beside them. Abu = CC[C@H](N)C(=O)O

Experiments:
[1] = molecular target: T1, HCV NS3 protease genotype 2a (Hepatitis C virus genotype 2a, UniProt P26660, L1043K/T1046A/V1183I); assay: Kinetic parameters of NS5AB substrate, HPLC peptide cleavage assay; assay type: biochemical
T1 construct: DNA fragment encoding residues Ala^1-Ser^181 of several isolates of genotype 2a or 2b; hexa-histidine (C); made in house; host or cells: E. coli BL21/DE3 pLysS
Method: (§1) Peptide sequences are shown below.
(§2) For determination of the kinetic parameters Km and Vmax, the NS5AB substrate was varied between 3 μM and 200 μM. The ratio of the product peak area to the reaction time yielded a rate of enzyme catalyzed hydrolysis. These rate vs. substrate concentration data points were fit to the Michaelis-Menten equation using non-linear regression. The value of kcat was determined from Vmax using the nominal protease concentration and a fully cleaved substrate peptide as an instrument calibration standard.

[2] = molecular target: T2, HCV NS3 protease genotype 3a (Hepatitis C virus genotype 3a, UniProt Q81258, I1084M/L1045K/S1134A/S1198A); assay: as above; assay type: biochemical
T2 construct: DNA fragment encoding residues Ala^1-Ser^181 of several isolates of genotype 2a or 2b; hexa-histidine (C); made in house; host or cells: E. coli BL21/DE3 pLysS
T2 sequence (Q81258 1033-1213, looked up, stated change not applied, other chains not shown): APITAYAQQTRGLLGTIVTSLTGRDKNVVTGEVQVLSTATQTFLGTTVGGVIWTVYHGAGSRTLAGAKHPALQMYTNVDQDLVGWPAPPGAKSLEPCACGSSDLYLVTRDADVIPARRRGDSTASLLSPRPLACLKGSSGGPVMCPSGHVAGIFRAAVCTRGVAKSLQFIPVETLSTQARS
Method: as §1, §2

[3] = molecular target: T1, HCV NS3 protease genotype 2a; assay: Fluorescence peptide assay, potency with extended incubation; assay type: biochemical; details: IC50 after extended preincubation taken as Ki of tightly bound complex, read-out: Ki following extended incubation
[4] = test system: Cells containing hepatitis C virus (HCV) replicon; assay: HCV replicon cell assay; assay type: cell-based; details: 48 h, read-out: (concentration at which 50% inhibition of HCV RNA level is observed)
Method: Cells were obtained according to the method of Lohmannn et al., Science, 285, pp. 110-113 (1999). Cells containing hepatitis C virus (HCV) replicon were maintained in DMEM containing 10% fetal bovine serum (FBS), 0.25 mg per ml of G418, with appropriate supplements (media A).
On day 1, replicon cell monolayer was treated with a trypsin:EDTA mixture, removed, and then media A was diluted into a final concentration of 100,000 cells per ml wit. 10,000 cells in 100 ul were plated into each well of a 96-well tissue culture plate, and cultured overnight in a tissue culture incubator at 37° C.
On day 2, compounds (in 100% DMSO) were serially diluted into DMEM containing 2% FBS, 0.5% DMSO, with appropriate supplements (media B). The final concentration of DMSO was maintained at 0.5% throughout the dilution series. […]
A Taqman real-time RT-PCR quantification assay was set up with two sets of specific primers and probe. […] Total RNA extractants from treated HCV replicon cells was added to the PCR reactions for quantification of both HCV and BVDV RNA in the same PCR well. […] The level of HCV RNA in each well was calculated according to a standard curve run in the same PCR plate. The percentage of inhibition or decrease of HCV RNA level due to compound treatment was calculated using the DMSO or no compound control as 0% of inhibition. […]

NS3-4A serine protease = NS3-4A serine protease (Hepatitis C virus genotype 1a, UniProt P27958); assay: Enzyme assays with KK-4A peptide and FRET substrate, mode of binding
Chain of NS3-4A serine protease (P27958 1027-1208, other chains not shown): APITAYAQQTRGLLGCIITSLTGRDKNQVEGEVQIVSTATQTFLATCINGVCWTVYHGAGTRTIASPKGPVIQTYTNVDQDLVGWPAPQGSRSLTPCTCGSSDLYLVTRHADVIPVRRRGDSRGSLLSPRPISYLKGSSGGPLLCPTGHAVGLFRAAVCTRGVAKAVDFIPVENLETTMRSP

NS3/4A protease = details: WO 02/018369, cited from earlier work
[5] = molecular target: T1, HCV NS3 protease genotype 2a; assay: Progress curve analysis of slow binding inhibition; assay type: biochemical
Source text: (§5) F(t)=Vs×t+(Vi−Vs)×(1−exp (−kobs×t))/kobs+C Equation 1:
(§6) kobs=koff+(kon×[I])/(1+[S]/Km) Equation 2:

[6] = molecular target: T2, HCV NS3 protease genotype 3a; assay: Fluorescence peptide assay, potency with extended incubation; assay type: biochemical; details: IC50 after extended preincubation taken as Ki of tightly bound complex, read-out: Ki following extended incubation
[7] = molecular target: T1, HCV NS3 protease genotype 2a; assay: HPLC peptide cleavage assay, apparent Ki; assay type: biochemical; details: 15 min preincubation, NS5AB at Km
Source text: as §1
(§3) Biophys. Acta. 874, pp. 44-53 (1986)].

[8] = molecular target: T2, HCV NS3 protease genotype 3a; assay: HPLC peptide cleavage assay, apparent Ki; assay type: biochemical; details: 15 min preincubation, NS5AB at Km
Source text: as §1, §3

[9] = molecular target: T1, HCV NS3 protease genotype 2a; assay: Inhibition constant from steady-state rates of progress curves; assay type: biochemical; details: steady-state portion of progress curves, Morrison fit, read-out: Ki using steady-state rates
Method: (§4) The rates of onset of slow binding inhibition were determined by a modification of the method for measurement of progress curves described by Narjes et al. [Narjes F. et al., Biochemistry 39, pp. 1849-1861 (2000)]. […] The reaction was initiated by addition of an aliquot of pre-heated enzyme stock to the compound-substrate mixture to yield final concentrations of 6 to 12 μM RET-S1 and 0.5 nM to 4 nM HCV NS3 protease. […] T., Adv. Enzymol. Relat. Areas Mol. Biol. 61, pp. 201-301 (1988)].
as §3

[10] = molecular target: T2, HCV NS3 protease genotype 3a; assay: as above; assay type: biochemical; details: steady-state portion of progress curves, Morrison fit, read-out: Ki using steady-state rates
Method: as §4, §3

[11] = molecular target: T2, HCV NS3 protease genotype 3a; assay: Progress curve analysis of slow binding inhibition; assay type: biochemical
Source text: as §5, §6

[12] = test system: CC[C@H](NC(=O)[C@@H](NC(=O)[C@@H](NC(=O)[C@H](CC(=O)O)NC(=O)[C@@H](N)CCC(=O)O)C(C)C)C(C)C)C(=O)N[C@@H](CS)C(=O)N[C@@H](CO)C(=O)N[C@@H](CCSC)C(=O)N[C@@H](CO)C(=O)N[C@@H](Cc1ccc(O)cc1)C(=O)O; assay: purified protein, by the assay type; details: other: genotype 1a; NS5AB substrate; pH 7.8; 40.0 °C
[13] = molecular target: RET-S1 fluorescent peptide (AnaSpec, San Jose, Calif.)
[14] = molecular target: NS5AB peptide substrate, based on the NS5A/NS5B cleavage site for genotype 1a HCV

`CC[C@H](NC(=O)[C@@H](NC(=O)[C@@H](NC(=O)[C@H](CC(=O)O)NC(=O)[C@@H](N)CCC(=O)O)C(C)C)C(C)C)C(=O)N[C@@H](CS)C(=O)N[C@@H](CO)C(=O)N[C@@H](CCSC)C(=O)N[C@@H](CO)C(=O)N[C@@H](Cc1ccc(O)cc1)C(=O)O` [NS5AB, NH2-EDVV-(alpha)Abu-CSMSY-COOH] (H-EDVV[Abu]CSMSY-OH) showed a Km [1] of 11 µM and a Km [2] of 70 µM.

For `CCC[C@H](NC(=O)[C@@H]1[C@H]2CCC[C@H]2CN1C(=O)[C@@H](NC(=O)[C@@H](NC(=O)c1cnccn1)C1CCCCC1)C(C)(C)C)C(=O)C(=O)NC1CC1` [VX-950], the Ki [3] was 37 nM, the IC50 [4] was 354 nM and the “mode of binding to the NS3-4A serine protease” value (NS3-4A serine protease) was “reversible, covalent, competitive, tight and slow binding”. For the same compound, the Ki (NS3/4A protease; read-out: Ki) was 8 nM, the Ki (NS3/4A protease; read-out: steady state binding constant (ki*)) was 3 nM and the Ki [5] was 67 nM. It also gave a Ki [6] of 460 nM, a Ki [7] of 40 nM and a Ki [8] of 650 nM. It also gave a Ki [9] of 32 nM, a Ki [10] of 270 nM and a Ki [11] of 440 nM.

Compound “HCV NS3 protease genotype 1a (Hepatitis C virus (isolate H77))” has a Km [12] of 25 µM and a kcat/Km [12] of 30000 M⁻¹ s⁻¹.

For HCV NS3 protease, genotype 1a (enzyme), the kcat/Km [13] was 170000 M⁻¹ s⁻¹ and the kcat/Km [14] was 30000 M⁻¹ s⁻¹.

With “HCV NS3 serine protease domain, genotype 2a consensus sequence (enzyme)” the kcat/Km [13] was 65000 M⁻¹ s⁻¹ and the kcat/Km [14] was 31000 M⁻¹ s⁻¹.

“HCV NS3 serine protease domain, genotype 3a consensus sequence (enzyme)” showed a kcat/Km [13] of 22000 M⁻¹ s⁻¹ and a kcat/Km [14] of 5200 M⁻¹ s⁻¹.
